Where “and” joins values, the source holds several entries; their conditions need not be identical. Equal values may be shown once.
Tests used:
S. aureus SrtA [1] = molecular target: T1, S. aureus SrtA (Staphylococcus aureus, UniProt Q2FV99); experiment: fluorometric enzyme assay of SrtA transpeptidation (Abz-LPETG-Dap(Dnp)-OH substrate); format: biochemical; settings: for SrtA inhibition (in words): fluorometric enzyme assay, inhibitor concentration 100 µM; for inhibition at 100 µM: read-out: SrtA inhibition relative to the DMSO control; for S. I. (k 2nd/k chem): SrtA k 2nd over cysteine k chem; for k inact: maximum inactivation rate; for k inact / KI (inactivation) / k 2nd: Tris pH 7.50, n. i. = <20% inhibition at 100 µM; for KI (inactivation): read-out: KI, dissociation constant of the reversible enzyme-inhibitor complex; for k 2nd: second-order rate of inhibition
T1 construct: His tag (inferred from IMAC on a HisTrap column); made in house; host or cells: E. coli BL21 Gold (DE3)
Experimental: To evaluate the inhibition potency of the parent sulfonylpyrimidine 4, this compound was tested by means of a fluorometric enzyme assay with recombinantly expressed S. aureus SrtA ([Schmohl et al., 2017b]) and Abz-LPETG-Dap (Dnp)-OH as substrate. […] To verify the irreversible mode of inhibition, we determined the maximum inactivation rate k inact, the dissociation constant of the reversible enzyme-inhibitor complex KI, and the second-order rate of inhibition k 2nd. For compound 4, a k inact = 0.00065 s^−1 was found, which is very low compared to other covalent SrtA inhibitors ([Chan et al., 2017]; [Barthels et al., 2020]; [Jaudzems et al., 2020]).
Inhibition assays of S. aureus SrtA transpeptidation reactions were performed as described previously ([Barthels et al., 2020]). Briefly, the recombinantly expressed SrtA (final concentration: 1 µM) was incubated in assay buffer (50 mM Tris, 150 mM NaCl, 5 mM CaCl2, pH 7.50) with 25 µM of the FRET-pair substrate Abz-LPETG-Dap (Dnp)-OH (Genscript, Piscataway, New Jersey) and 0.5 mM tetraglycine (Sigma Aldrich, St. Louis, Missouri). Inhibitors were added from DMSO stocks. Reactions were initiated by addition of SrtA and monitored for 30 min at 30°C in an Infinite M200 Pro plate reader with λex 320 nm/λem 430 nm (Tecan, Männedorf, Switzerland). Three technical replicates were carried out for each inhibitor in black flat-bottom 96-well plates (Greiner bio-one, Kremsmünster, Austria). The enzyme kinetics of irreversible SrtA inactivation were analyzed as described previously ([Barthels et al., 2020]).

[2] = molecular target: T2, human cathepsin B (hCatB) (Homo sapiens, UniProt P07858); experiment: protease selectivity panel, fluorometric assay cathepsin B; format: biochemical; settings: 100 µM inhibitor; read-out: CatB inhibition relative to the DMSO control
T2 construct: purchased Calbiochem, Merck Millipore
Experimental: (§1) To investigate how these sulfonylpyrimidines affect the activity of other cysteine and serine proteases, a selectivity panel was constructed from a matrix of 6 diverse sulfonylpyrimidines and 6 different proteases. The compounds were assayed at a final compound concentration of 100 µM for the cysteine proteases human cathepsin B (hCatB), cathepsin L (hCatL), and T. brucei rhodesain (Rd). Furthermore, the serine proteases NS2B-NS3 from Zika virus (ZIKV), the homologous protease from Dengue virus (DENV), and the human protease urokinase plasminogen activator (uPA) were tested for their susceptibility.
(§2) Fluorometric assays of the ZIKV/DENV NS2B/NS3 protease were performed as described previously ([Maus et al., 2021]). The assay was carried out in triplicates at 25°C in assay buffer (50 mM Tris, pH 9.0, 20% glycerol (v/v), and 1 mM CHAPS). 100 µM Boc-Gly-Arg-Arg-AMC (Bachem, Bubendorf, Switzerland) was used as a substrate. Fluorometric assays for cathepsin B, cathepsin L, and rhodesain (Calbiochem, Merck Millipore, Burlington, Massachusetts) were performed as described previously ([Klein et al., 2020a]). Cbz-Phe-Arg-AMC (Bachem, Bubendorf, Switzerland) was used as substrate (100 μM for cathepsin B, 6.5 μM for cathepsin L, and 10 µM for rhodesain). Fluorometric assays for urokinase plasminogen activator were performed as described previously ([Angelini et al., 2012]). 240 µM Cbz-Gly-Arg-Arg-AMC (Bachem, Bubendorf, Switzerland) was used as a substrate.

cathepsin L (hCatL) = molecular target: T3, cathepsin L (hCatL) (Homo sapiens, UniProt P07711); experiment: protease selectivity panel, fluorometric assay cathepsin L; format: biochemical; settings: 100 µM inhibitor; read-out: CatL inhibition relative to the DMSO control
T3 construct: purchased Calbiochem, Merck Millipore
Experimental: as §1, §2

T. brucei rhodesain (Rd) = molecular target: T4, T. brucei rhodesain (Rd) (Trypanosoma brucei rhodesiense, UniProt Q95PM0); experiment: protease selectivity panel, fluorometric assay rhodesain; format: biochemical; settings: 100 µM inhibitor, n. i. = no inhibition at 100 µM; for inhibition at 100 µM: read-out: Rd inhibition relative to the DMSO control
T4 construct: purchased Calbiochem, Merck Millipore
Experimental: as §1, §2

[3] = molecular target: T5, NS2B-NS3 from Zika virus (ZIKV) (Zika virus, UniProt Q32ZE1); experiment: protease selectivity panel, fluorometric assay ZIKV NS2B/NS3 protease; format: biochemical; settings: 100 µM inhibitor; read-out: ZIKV inhibition relative to the DMSO control
T5 construct: The ZIKV NS2B/NS3 protease is a serine protease and contains two non-catalytic cysteine residues
Experimental: as §1, §2

DENV NS2B/NS3 protease = DENV NS2B/NS3 protease (Dengue virus type 2, UniProt P29990); experiment: protease selectivity panel, fluorometric assay DENV NS2B/NS3 protease; format: biochemical; settings: 100 µM inhibitor, n. i. = no inhibition at 100 µM; for inhibition at 100 µM: read-out: DENV inhibition relative to the DMSO control
Experimental: as §1, §2

[4] = molecular target: human protease urokinase plasminogen activator (uPA) (Homo sapiens, UniProt P00749); experiment: protease selectivity panel, fluorometric assay urokinase plasminogen activator; format: biochemical; settings: 100 µM inhibitor; n. i. = no inhibition at 100 µM; read-out: uPA inhibition relative to the DMSO control
Experimental: as §1, §2

[5] = cysteine reactivity assay (competitive fluorescence assay with probe 8); format: physicochemical; settings: phosphate buffer (1×PBS) pH 7.5
From the text: In order to study the kinetics of sulfonylpyrimidines reacting with free cysteine in solution, a strategy for a competitive fluorescence-based assay was adapted from previous works ([Epps and Taylor, 2001]; [Sameshima et al., 2017]). […] The reaction of probe 8 with cysteine liberates 4-methylumbelliferone as a fluorometrically detectable product (Figure 7A), and thus, the fluorescence increase can be described by the second-order rate constant k probe (Equation 1).
Upon the addition of competitive and irreversible cysteine modifiers such as sulfonylpyrimidines, the fluorescence increase of the probe reaction was hyperbolically attenuated (Figure 7B). According to the conceptual deduction described previously ([Epps and Taylor, 2001]; [Sameshima et al., 2017]), the experimental fluorescence curves can be analyzed by nonlinear regression as first-order reaction progress curves (Equation 2). The parameter k obs describes the curvature corresponding to the sum of the competing kinetics (Equation 3). Under the assumptions that 1) the competitive reaction between sulfonylpyrimidines vs. probe with cysteine is started by simultaneous addition, and 2) sulfonylpyrimidines are added at a much higher concentration than cysteine (5 µM) and the probe (5 µM), the k obs values depend substantially on the k chem value. The compound-specific second-order inactivation parameter k chem can be determined by linear regression from the k obs values of the dilution series (Equation 4). d[FL]/dt=kprobe[Cys][probe] (1) FL=[Cys]total⋅kprobe [probe]/kprobe [probe] + kchem [sulfonylpyrimidine](1−e^−kobs⋅t) (2) kobs=kchem [sulfonylpyrimidine]+kprobe [probe] (3) kchem=kobs/[sulfonylpyrimidine] (4)
Kinetic characterization of the reaction between sulfonylpyrimidines and cysteine was performed in degassed phosphate buffer (1×PBS, pH 7.5) or individual cases in bicarbonate buffer (20 mM NaHCO3, 100 mM NaCl, pH 7.5). Three technical replicates were carried out for each sulfonylpyrimidine in black flat-bottom 96-well plates. For this purpose, 50 µL buffered solution (including 5% (v/v) DMSO) of the respective sulfonylpyrimidine derivative (final: 250–3 µM) and the cysteine reactive probe 8 (final: 5 µM) were premixed. Reactions were initiated by the addition of 50 µL cysteine (final: 5 µM), dissolved in the respective buffer, and monitored for 30 min at 30°C in an Infinite M200 Pro plate reader with λex 380 nm/λem 460 nm. To calculate k obs and k chem values, fluorescence curves were fitted using the same non-linear regression as for in vitro inhibition of SrtA ([Barthels et al., 2020]).

Cys184 = Cys184 (UniProt position 184, LTLITCDDYNE); experiment: NMR; settings: free enzyme (inferred); cited from earlier work
His120 = His120 (UniProt position 120, ISIAGHTFIDR); settings: free enzyme (inferred); cited from earlier work
[6] = in-solution reaction with free cysteine (ESI-MS / LC/MS); format: physicochemical
Experimental: Thus, we determined the point of nucleophilic thiol attack by means of ESI mass spectrometry between the reaction of compound 7a and cysteine in phosphate buffered solution at pH 7.5.
Furthermore, the influence of different solvents on the reaction of sulfonylpyrimidines with thiols in solution was investigated.
To a solution of 100 µM cysteine in phosphate-buffered saline (1×, pH 7.5), compound 5a or 7a (100 μM, 5% DMSO) was added and incubated for 10 min at room temperature. The negative labeling control was performed by mock treatment with DMSO. Samples were analyzed by LC/MS using an Agilent 1100 series HPLC system with an Agilent Poroshell 120 EC-C18 column (150 × 2.10 mm 4 μm; mobile phase: ACN/H2O 45:55 + 0.1% formic acid; flow rate: 0.4 ml/min) and electron spray ionization with the Agilent 1100 series LC/MSD Trap in positive ionization mode.

S. aureus SrtA [7] = molecular target: T1, S. aureus SrtA; experiment: fluorometric enzyme assay of SrtA transpeptidation (Abz-LPETG-Dap(Dnp)-OH substrate); format: biochemical

Sequence of DENV NS2B/NS3 protease (P29990 1398-1437): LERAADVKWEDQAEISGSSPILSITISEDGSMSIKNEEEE
Sequence of DENV NS2B/NS3 protease (P29990 1476-1653): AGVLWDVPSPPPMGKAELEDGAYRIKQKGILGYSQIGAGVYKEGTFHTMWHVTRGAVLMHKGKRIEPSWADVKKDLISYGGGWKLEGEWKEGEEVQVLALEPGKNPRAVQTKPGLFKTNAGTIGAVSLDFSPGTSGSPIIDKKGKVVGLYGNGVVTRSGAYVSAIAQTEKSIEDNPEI
T3 sequence (P07711 114-333): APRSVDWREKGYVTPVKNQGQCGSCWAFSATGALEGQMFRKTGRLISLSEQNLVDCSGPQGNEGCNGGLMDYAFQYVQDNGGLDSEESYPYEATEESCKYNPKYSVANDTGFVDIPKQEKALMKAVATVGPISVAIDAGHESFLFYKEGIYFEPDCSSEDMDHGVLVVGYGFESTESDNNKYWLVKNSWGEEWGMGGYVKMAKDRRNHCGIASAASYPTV
T1 sequence (Q2FV99 60-206): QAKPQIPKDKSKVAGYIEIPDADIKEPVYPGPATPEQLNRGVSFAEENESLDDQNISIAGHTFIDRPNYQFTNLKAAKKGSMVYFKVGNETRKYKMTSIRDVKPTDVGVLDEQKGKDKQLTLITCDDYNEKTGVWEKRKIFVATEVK
T5 sequence (Q32ZE1 1499-1676): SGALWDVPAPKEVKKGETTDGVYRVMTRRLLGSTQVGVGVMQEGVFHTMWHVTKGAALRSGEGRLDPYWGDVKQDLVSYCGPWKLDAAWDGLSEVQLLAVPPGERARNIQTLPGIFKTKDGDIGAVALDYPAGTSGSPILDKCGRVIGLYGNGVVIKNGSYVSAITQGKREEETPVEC
T5 sequence (Q32ZE1 1421-1460): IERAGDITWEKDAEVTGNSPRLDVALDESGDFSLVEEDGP
T4 sequence (Q95PM0 entry or part of it): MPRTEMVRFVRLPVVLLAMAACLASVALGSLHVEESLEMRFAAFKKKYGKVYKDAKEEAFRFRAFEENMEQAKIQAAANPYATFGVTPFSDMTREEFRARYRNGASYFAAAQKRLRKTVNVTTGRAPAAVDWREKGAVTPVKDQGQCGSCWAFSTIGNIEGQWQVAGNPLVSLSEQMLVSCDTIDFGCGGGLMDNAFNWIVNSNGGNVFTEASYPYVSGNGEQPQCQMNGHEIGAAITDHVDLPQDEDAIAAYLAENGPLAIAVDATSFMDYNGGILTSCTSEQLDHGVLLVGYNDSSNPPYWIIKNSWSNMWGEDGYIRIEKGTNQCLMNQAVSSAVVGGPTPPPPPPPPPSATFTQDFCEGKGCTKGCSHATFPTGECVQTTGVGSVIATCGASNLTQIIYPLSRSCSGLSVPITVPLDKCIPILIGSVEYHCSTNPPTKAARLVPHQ

CS(=O)(=O)c1ncc(Cl)c(C(=O)Nc2ccccc2Oc2ccccc2)n1 [Compound 6g]
SrtA inhibition (in words) (S. aureus SrtA [1]): complete abolition of inhibition | inhibition at 100 µM (S. aureus SrtA [1]): 21.8% | inhibition at 100 µM [2]: 11.8% | inhibition at 100 µM (cathepsin L (hCatL)): 29.4% | inhibition at 100 µM (T. brucei rhodesain (Rd)): 15% | inhibition at 100 µM [3]: 18.3% | inhibition at 100 µM (DENV NS2B/NS3 protease): 2.6% | inhibition at 100 µM [4]: 67% | melting point: 177 °C

CS(=O)(=O)c1ncc(Br)c(C(=O)Nc2cccc(Oc3ccccc3)c2)n1 [Compound 7b]
S. I. (k 2nd/k chem) (S. aureus SrtA [1]): 134 | k inact (S. aureus SrtA [1]): 0.01285 ± 0.00147 s⁻¹ | KI (inactivation) (S. aureus SrtA [1]): 55.9 ± 11.6 µM | inhibition at 100 µM (S. aureus SrtA [1]): 99.2% | k 2nd (S. aureus SrtA [1]): 13,998 ± 1,462 M^−1min^−1 | inhibition at 100 µM [2]: 12.5% | inhibition at 100 µM (cathepsin L (hCatL)): 28.5% | inhibition at 100 µM (T. brucei rhodesain (Rd)): 4.7% | inhibition at 100 µM [3]: 18.3% | inhibition at 100 µM (DENV NS2B/NS3 protease): 5.2% | inhibition at 100 µM [4]: 11.2% | Cysteine k chem [5]: 1.735 ± 0.323 M⁻¹ s⁻¹ | melting point: 153 °C

Sortase A (SrtA) (Staphylococcus aureus)
pKa (Cys184): 9.4 | pKa (His120): 6.3

CS(=O)(=O)c1ncc(Cl)c(C(=O)Nc2cccc(Oc3ccccc3)c2)n1 [Compound 5a]
S. I. (k 2nd/k chem) (S. aureus SrtA [1]): 159 | k inact (S. aureus SrtA [1]): 0.0077 s⁻¹ and 0.00774 ± 0.00007 s⁻¹ | KI (inactivation) (S. aureus SrtA [1]): 57.6 ± 3.55 µM | inhibition at 100 µM (S. aureus SrtA [1]): 99% | k 2nd (S. aureus SrtA [1]): 8,088 M^−1min^−1 and 8,088 ± 464 M^−1min^−1 | improvement of overall inhibition potency (k 2nd), factor (S. aureus SrtA [1]; versus parent compound 4): 10 | inhibition at 100 µM [2]: 6.6% | inhibition at 100 µM (cathepsin L (hCatL)): 8.8% | inhibition at 100 µM (T. brucei rhodesain (Rd)): 24.6% | inhibition at 100 µM [3]: 6.4% | DENV inhibition relative to the DMSO control (DENV NS2B/NS3 protease): n. i. | inhibition at 100 µM [4]: 23% | Cysteine k chem [5]: 0.847 ± 0.277 M⁻¹ s⁻¹ | time to quantitative reaction with cysteine ([6]; compound 100 µM, cysteine 100 µM, phosphate buffered solution pH 7.5): < 10 min | reactivity with cysteine (in words) ([6]; water/DMSO mixtures, no buffer): No reactivity | melting point: 156 °C | k 2nd (S. aureus SrtA [7]; pH 6.5, Tris or Bis-Tris buffer): 4,384 M^−1min^−1 | k 2nd (S. aureus SrtA [7]; pH 7.0, Tris or Bis-Tris buffer): 8,436 M^−1min^−1 | k 2nd (S. aureus SrtA [7]; zwitterionic HEPES buffer at pH 7.5): 7,956 M^−1min^−1

Cc1cnc(S(C)(=O)=O)nc1C(=O)Nc1cccc(Oc2ccccc2)c1 [Compound 7d]
S. I. (k 2nd/k chem) (S. aureus SrtA [1]): 196 | k 2nd (S. aureus SrtA [1]): 1,204 ± 139 M^−1min^−1 | Cysteine k chem [5]: 0.102 ± 0.0285 M⁻¹ s⁻¹ | melting point: 164 °C

CS(=O)(=O)c1nc(Cl)cc(NC(=O)c2ccccc2Oc2ccccc2)n1 [Compound 6i]
SrtA inhibition (in words) (S. aureus SrtA [1]): complete loss of inhibition | inhibition at 100 µM (S. aureus SrtA [1]): 36% | inhibition at 100 µM [2]: 9.5% | inhibition at 100 µM (cathepsin L (hCatL)): 21.3% | inhibition at 100 µM (T. brucei rhodesain (Rd)): 9.2% | inhibition at 100 µM [3]: 29.3% | inhibition at 100 µM (DENV NS2B/NS3 protease): 15% | inhibition at 100 µM [4]: 59.4% | Cysteine k chem [5]: 0 M⁻¹ s⁻¹ | melting point: 184 °C

CS(=O)(=O)c1ncc(Cl)c(C(=O)Nc2cccc(C(=O)c3ccccc3)c2)n1 [Compound 6a]
S. I. (k 2nd/k chem) (S. aureus SrtA [1]): 327 | k inact (S. aureus SrtA [1]): 0.00986 ± 0.00128 s⁻¹ | KI (inactivation) (S. aureus SrtA [1]): 29.6 ± 9.39 µM | inhibition at 100 µM (S. aureus SrtA [1]): 98.4% | k 2nd (S. aureus SrtA [1]): 20,785 ± 4,074 M^−1min^−1 | fold more potent based on the k 2nd value (S. aureus SrtA [1]; versus virtual screening hit 5a): 2.5 fold | inhibition at 100 µM [2]: 5.6% | inhibition at 100 µM (cathepsin L (hCatL)): 18% | Rd inhibition relative to the DMSO control (T. brucei rhodesain (Rd)): n. i. | inhibition at 100 µM [3]: 18.6% | inhibition at 100 µM (DENV NS2B/NS3 protease): 5.1% | inhibition at 100 µM [4]: 2.2% | Cysteine k chem [5]: 1.06 ± 0.14 M⁻¹ s⁻¹ | melting point: 175 °C

— publication PMC8763382, “2-Sulfonylpyrimidines as Privileged Warheads for the Development of S. aureus Sortase A Inhibitors” (Frontiers in Molecular Biosciences, 2022)
